These results are taken from patent US7923429B2, “Treatment for CD5+ B cell lymphoma” (3M Innovative Properties Company, priority 2003, dated 2011).

Assay [1] relates to CLL cells. Put plainly: Costimulatory molecule expression by activated CLL cells (flow cytometry). Format: cell-based, human. The procedure: Blood samples: Heparinized blood (30-40 mL) was collected from consenting CLL patients (diagnosed by a persistent elevation of CD19^+CD5^+ IgM^lo lymphocytes (Rozman and Montserrat, New Engl. J. Med. 1995; 333:1052-1057)). All patients were untreated at the time of analysis. Protocols were approved by the appropriate Institutional Review Board.
Cell purification: CLL and T cells were isolated from fresh blood by negative selection (RosetteSep, StemCell Technologies, Vancouver, BC) as described by Gitelson et al. (Gitelson et al., Clin. Cancer Res. 2003; 99:1656-1665).
Activation of CLL cells: Purified CLL cells (1.5×10^6 cells/mL) were cultured in serum-free AIM-V medium plus 2-mercaptoethanol (2-ME, 5×10^−5 M) (Sigma Chemical Co.) in 6- or 24-well plates (Becton-Dickinson Labware, Franklin Lake, N.J.) for 3-4 days at 37° C. in 5% CO2. CLL cells were activated by adding the Negative Control compound (1 μg/mL), IRM1 (1 μg/mL), IL-2 (5000 U/mL), PDB (100 ng/mL), or bryostatin ([…]), as appropriate.
Flow cytometry: Cell staining was performed as described by Gitelson et al. (Gitelson et al., Clin. Cancer Res. 2003; 99:1656-1665).
CLL cells from the indicated number of patients were cultured in IRM1 (1 μg/mL) for 3-4 days, and then assayed for expression of the costimulatory molecules indicated on the x-axis (at an intensity greater than the first decade of log fluorescence) of FIG. 1A. The percentage of cells that expressed each costimulatory molecule and the mean fluorescence intensity (MFI) of expression were measured by flow cytometry. The “fold-increase” was then calculated from the ratio of these measurements to the percentage and MFI of control cells cultured without activating agents. […]
CLL cells were isolated and cultured alone or with IL-2 (5000 U/mL), IRM1 (1 μg/mL), or both IL-2 and IRM1 for 3-4 days. The expression of CD80, CD86, CD54, and CD83 was then determined by flow cytometry.
CD80, CD83, CD54, and CD86 expression were then determined by flow cytometry.
(A flow cytometer gives signals particle by particle.)

Assay [2] relates to CLL cells. Briefly: Elimination of CLL cells by autologous T cells in co-culture. In kind it is cell-based, human. The conditions noted are these: alone or in combination with IL-2 and/or bryostatin; 1:1 CLL:T cells, 5 days. The procedure: CLL cells and T cells were isolated from a CLL patient, suspended at concentrations of 10^6 cells/mL and mixed in a 1:1 ratio. The cell mixtures were cultured alone, or in the presence of IL-2, IL-2 and IRM1, bryostatin, bryostatin and IL-2, bryostatin and IRM1, or bryostatin, IL-2, and IRM1. In FIG. 5A, after 5 days, the percentages of CD5^+ CD19^+ tumor cells (indicated by the numbers in the right upper quadrants of the dot-plots) and CD5^+ CD19^− T cells were determined by flow cytometry. In FIG. 5B, these percentages and the total numbers of viable cells (determined by manual counting in a hemocytometer) were used to calculate the remaining absolute numbers of CLL cells in the cultures.

Assay [3] relates to lymphomatous skin deposits associated with chronic lymphocytic leukemia. Briefly: Topical treatment of lymphomatous skin deposits in a CLL patient. Format: in vivo, human. The conditions noted are these: topical IRM2; count at beginning 36×10^6 cells/mL. An excerpt: A person was diagnosed with Rai Stage 0 CLL on the basis of a persistent elevated count of circulating monoclonal CD19^+ CD5^+ IgM^lo lymphocytes, determined by flow cytometry. CD38 was expressed by 45% of circulating CLL cells. The white blood cell counts at the beginning and end of treatment with IRM2 were 36×10^6 cells/mL and 45×10^5 cells/mL, respectively. Other systemic chemotherapy, steroids, or radiation had not been administered previously.
Additionally, the patient reported having recurrent nodular, erythematous lesions on their hands and arms for approximately eight years. The lesions were usually removed by treatment with liquid nitrogen. At the time they were diagnosed with CLL, they had several such lesions over their upper back (FIG. 8A) and arms. One lesion was biopsied and found to contain a diffuse atypical lymphoid dermal infiltrate consisting of many small, round lymphocytes, without epidermotropism.
A 5% cream of IRM2 was applied to the affected area three times per week.
Administration of 5% IRM2 cream was increased to once per day.

Assay [4] has as its system T cells from CLL patients. Put plainly: Mixed lymphocyte response: T cell proliferation stimulated by activated, irradiated CLL cells. In kind it is cell-based, human. The conditions noted are these: CLL cells activated 3-4 days, MLR 5-6 days, alamar blue. An excerpt: Mixed Lymphocyte Responses (MLRs): T cells were isolated from CLL patients and adjusted to 5×10^5 cells/mL in AIM-V medium. Activated CLL cells were washed at least 4 times to remove residual immunomodulators, irradiated (2500 cGy) and suspended at 5×10^5 cells/mL (or lower concentrations) in AIM-V. Responders and stimulators were then mixed in a 1:1 (vol:vol) ratio and cultured in 96-well round bottom plates (Becton Dickinson Labware, Franklin Lake, N.J.) without additional cytokines or serum. Proliferation was measured 4-6 days later using a colorimetric assay (Gitelson et al., Clin Cancer Res. 2003; 99:1656-1665; and Ahmed et al., J. Immunol. Methods. 1994; 170:211-224).
CLL cells were purified from individual patients and cultured alone or with IL-2, IRM1, IL-2 and IRM1, PDB, PDB and IL-2, PDB and IRM1, or PDB, IL-2, and IRM1. After 3-4 days, these cells were harvested, washed extensively, irradiated (2500 cGy) and used to stimulate allogenic or autologous T cells from CLL patients (obtained at the same time as the CLL cells and rested in culture until added to the Mixed Lymphocytic Response (MLR) assay) after 5-6 days of culture, alamar blue was added and proliferation was measured in an optical density calorimetric microplate reader at wavelengths of 540 (reduced state) and 595 (oxidized state). […]
On the technique in general: The colour change of resazurin is a common sign of viable cells or microbes.

On to `CCOCc1nc2c(N)nc3c(c2n1CC(C)(C)O)CCCC3.O` [IRM1, 4-amino-2-(ethoxymethyl)-α,α-dimethyl-6,7,8,9-tetrahydro-1H-imidazo[4,5-c]quinoline-1-ethanol hydrate], for which the “dependence of ICOS-L expression on signaling” value in the assay with CLL cells [1] (IL-2 5000 U/mL, IRM1 1 μg/mL) is recorded as “relatively independent”. Besides, the “expression of 4-1BBL and PDL-1” value with CLL cells [1] (IL-2 5000 U/mL, IRM1 1 μg/mL, less than CD80, CD86, CD54) was “increased somewhat”. Also, the “effect on CD80 compared with effect on CD86” value in the assay on CLL cells [1] (IRM1 1 μg/mL) is listed as “greater”. In the assay with CLL cells [1] (IRM1 1 μg/mL vs IL-2 5000 U/mL, 3-4 days), the “potency as single agent in increasing CD80 and CD86 expression, relative to IL-2” value is “more potent than IL-2”. Also, in the assay on CLL cells [1] (IRM1 1 μg/mL, 3-4 days), the “CD80, CD86, and CD54 expression” value was “especially strong effects”; the ICOS-L expression result was “little effect”; the “MFI of CD80, CD86, CD54, and CD83” value is reported as “increased the expression of all four”; the “expression of CD83, 4-1BBL, and PDL-1” value is “increased”. Moreover, the “patients whose CLL cells showed increased expression of CD54, CD80, and CD86” value in the assay on CLL cells [1] (IRM1 1 μg/mL, 3-4 days, n=31) is listed as “all patients studied”. The “percentage of CLL cells that expressed CD80 and CD86, and MFI of expression” value in the assay with CLL cells [1] (single agent, IL-2 5000 U/mL or IRM1 1 μg/mL, 3-4 days) was “increased”. Besides, in the assay on CLL cells [2], the “killing of CLL cells by autologous T cells in vitro” value is given as “induced autologous T cells to kill CLL cells”.
For `CC(C)Cn1cnc2c(N)nc3ccccc3c21` [IRM2, 1-(2-methylpropyl)-1H-imidazo[4,5-c]quinolin-4-amine], the “white blood cell count at end of treatment” value in assay [3] was 45×10^5 cells/mL.
With `CC(C)Cn1cnc2c(O)nc3ccccc3c21` [Negative Control, 4-hydroxy-1-isobutyl-1H-imidazo[4,5-c]quinoline, reference compound], the “effects on CLL cells” value in the assay with CLL cells [1] (1 μg/mL, 3-4 days culture) is reported as “did not have measurable effects”.
As for `CCCC(=O)O[C@@H]1[C@@H](C)[C@@]2(O)[C@@H](C=C(CO)C[C@]3(O)C(=O)C(C)=C[C@@H]23)[C@@H]2C(C)(C)[C@]12OC(=O)CCC` [PDB, Phorbol dibutyrate, reference compound], in the assay with CLL cells [1] (PDB alone, 100 ng/mL), the “CD54 and ICOS-L expression” value was “not affected greatly”; the “expression of 4-1BBL and PDL-1” value is listed as “increased”. In the assay on CLL cells [1] (PDB alone, 100 ng/mL, 3-4 days), the “CLL cells expressing CD83” value is approximately 90%. Moreover, the “number of CD80+ and CD86+ CLL cells” value with CLL cells [1] (PDB alone, 100 ng/mL, CD86+ more than CD80+) is “increased”. Further, the “ability of activated CLL cells to stimulate T cell proliferation” value in assay [4] is “weak stimulators”.
On to poly (I:C) [reference compound], for which the “costimulatory molecule expression (CD80, CD86) by CLL cells” value in the assay on CLL cells [1] (100 μg/mL, 48 hours) is on record as “rarely affected”.
